The values that follow come from publication PMC10457778, “Effects of In Vitro Digestion of Polyphenols from Coffee on Binding Parameters to Human Topoisomerase II α” (Molecules, 2023).

In one test the target is T1, Topoisomerase II α human (Homo sapiens, UniProt P11388).
T1 construct: purchased Sigma Aldrich (St. Louis, MO, USA)
In words: Isothermal titration calorimetry (ITC) of interactions with TOPIIα. It counts as binding. Particulars: single compounds; for ∆G (kJ/mol) ITC / ∆H (kJ/mol) ITC: 36.6 °C, mean ± SD, n = 6. How it is done:
The parameters of interactions of coffee and its components with TOPIIα were carried out using the isothermal titration calorimetry (ITC) (MicroCal PEAQ-ITC 200, Malvern, Worcestershire, UK). Analyses were carried out according to Grzelczyk et al., with some modifications. A calorimeter cell with a capacity of 0.2 mL was filled with 0.1 μmol/L of TOPIIα solution in ultrapure water (deionized, LC-MS grade); the syringe was subsequently filled with titrants as degassed aqueous solutions of chlorogenic acids (CHAs); green, light-, or dark-roasted coffee extracts; coffee fraction; before and after in vitro digestion, at concentrations of 10 mmol/L (coffee extracts at concentrations of 0.1 mmol/L calculated based on 5-caffeoylquinic acid). The measurements were carried out at 36.6 °C with continuous stirring at 307 rpm (10 injections, 25 min). During the ITC analysis, an exothermic or endothermic reaction was recorded, when the binding of compounds to the enzyme occurred. The heat was generated as a consequence of ligand-to-protein binding, which is observed as an energy peak (raw data of heat in […]). The titration of a ligand into water was performed to subtract the energetic effects of dilution. The enthalpy changes (∆H), Gibbs free energy changes (∆G), and entropy changes (∆S) were calculated from the ITC titration nonlinear least squares saturation curve fitting carried out using MicroCal PEAQ-ITC200 software 1.30 [40].
In general terms: Isothermal titration calorimetry measures the heat released or taken up as one component is titrated into another.

The next test concerns human topoisomerase IIα. Also on record: method as in PMID 18461976. Particulars: 100 μM solutions; cited from earlier work.
Where [1] appears, read: listed as 4,5-di-O-caffeoylquinic acid.

Marks after values point to notes of the source that are not given here.

T1 sequence (P11388 whole entry): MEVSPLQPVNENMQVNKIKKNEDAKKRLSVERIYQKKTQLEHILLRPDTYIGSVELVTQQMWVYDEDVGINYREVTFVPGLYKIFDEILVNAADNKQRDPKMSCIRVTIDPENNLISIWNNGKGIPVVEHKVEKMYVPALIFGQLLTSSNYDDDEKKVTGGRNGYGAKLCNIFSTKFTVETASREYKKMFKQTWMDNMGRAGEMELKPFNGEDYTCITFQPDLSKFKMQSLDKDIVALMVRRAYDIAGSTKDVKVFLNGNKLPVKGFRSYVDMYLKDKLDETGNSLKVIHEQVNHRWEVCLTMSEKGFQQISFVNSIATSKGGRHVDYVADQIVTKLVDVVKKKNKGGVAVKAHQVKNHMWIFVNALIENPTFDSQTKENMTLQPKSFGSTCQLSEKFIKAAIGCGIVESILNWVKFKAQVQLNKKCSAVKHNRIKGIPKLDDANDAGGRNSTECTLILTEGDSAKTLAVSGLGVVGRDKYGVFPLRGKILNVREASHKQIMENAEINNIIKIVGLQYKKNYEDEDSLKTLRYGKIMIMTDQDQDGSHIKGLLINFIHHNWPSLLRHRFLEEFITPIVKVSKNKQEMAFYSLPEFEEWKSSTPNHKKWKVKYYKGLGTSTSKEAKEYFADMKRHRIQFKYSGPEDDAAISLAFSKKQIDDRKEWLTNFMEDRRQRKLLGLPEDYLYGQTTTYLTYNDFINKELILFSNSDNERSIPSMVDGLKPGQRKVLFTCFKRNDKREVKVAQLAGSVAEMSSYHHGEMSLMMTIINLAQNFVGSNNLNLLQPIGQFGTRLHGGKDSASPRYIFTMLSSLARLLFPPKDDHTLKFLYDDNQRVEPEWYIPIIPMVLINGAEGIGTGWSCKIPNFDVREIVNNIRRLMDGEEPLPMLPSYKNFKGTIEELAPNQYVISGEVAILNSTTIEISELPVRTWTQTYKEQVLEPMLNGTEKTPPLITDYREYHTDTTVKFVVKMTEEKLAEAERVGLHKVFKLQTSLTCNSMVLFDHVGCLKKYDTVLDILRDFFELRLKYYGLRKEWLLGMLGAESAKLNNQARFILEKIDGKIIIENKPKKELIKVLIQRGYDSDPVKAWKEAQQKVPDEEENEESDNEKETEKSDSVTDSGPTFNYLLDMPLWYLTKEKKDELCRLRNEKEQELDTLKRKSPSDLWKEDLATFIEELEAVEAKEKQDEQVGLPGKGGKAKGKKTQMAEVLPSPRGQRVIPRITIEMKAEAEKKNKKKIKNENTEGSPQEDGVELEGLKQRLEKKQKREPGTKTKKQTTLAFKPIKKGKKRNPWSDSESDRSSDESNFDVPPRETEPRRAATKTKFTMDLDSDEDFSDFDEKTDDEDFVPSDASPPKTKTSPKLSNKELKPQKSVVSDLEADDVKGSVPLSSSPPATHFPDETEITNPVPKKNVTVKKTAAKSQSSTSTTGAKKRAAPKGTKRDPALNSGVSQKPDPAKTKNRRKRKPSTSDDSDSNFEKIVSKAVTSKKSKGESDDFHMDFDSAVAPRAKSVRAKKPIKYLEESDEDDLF

Turning to `O=C(O)/C=C/c1ccc(O)c(O)c1` [Caffeic acid], on Topoisomerase II α human, the “∆G (kJ/mol) ITC” value is reported as −33.54 ± 1.09 ^a kJ/mol and the “∆H (kJ/mol) ITC” value was −9.04 ± 0.25 ^a kJ/mol. As to `O=c1c(O)c(-c2ccc(O)cc2)oc2cc(O)cc(O)c12` [kaempferol], the “mode of action on human topoisomerase IIα” value (from here on “mode of action”) in the test with human topoisomerase IIα was “redox-dependent poisons rather than the enzyme inhibitors”. With `O=C(C=Cc1ccc(O)c(O)c1)OC1CC(O)(C(=O)O)CC(O)C1OC(=O)C=Cc1ccc(O)c(O)c1` (centres unmarked) [4,5-Di-O-caffeoylquinic acid], at Topoisomerase II α human, the “∆G (kJ/mol) ITC” value was −37.64 ± 1.35 ^c kJ/mol and the “∆H (kJ/mol) ITC” value is recorded as −1.78 ± 0.15 ^d kJ/mol. Further, at Topoisomerase II α human (setting [1]), the “∆G (kJ/mol) ITC” value was -37.64 kJ/mol and the “∆H (kJ/mol) ITC” value is -1.78 kJ/mol. In the case of `Cn1c(=O)c2c(ncn2C)n(C)c1=O` [Caffeine, reference compound], on Topoisomerase II α human, the “∆G (kJ/mol) ITC” value is given as −34.50 ± 1.15 ^d kJ/mol and the “∆H (kJ/mol) ITC” value was −6.28 ± 0.45 ^e kJ/mol. Turning to `O=C(O)CCc1ccc(O)c(O)c1` [Dihydrocaffeic acid], on Topoisomerase II α human, the “∆G (kJ/mol) ITC” value is recorded as −34.42 ± 1.33 ^d kJ/mol and the “∆H (kJ/mol) ITC” value is on record as −6.49 ± 0.29 ^e kJ/mol. On to `C=CC(N)=O` [Acrylamide], for which the “interactions with TOPIIα in ITC measurements” value at Topoisomerase II α human is “did not show significant interactions”.

With `O=Cc1ccc(CO)o1` [5-(Hydroxymethyl)furfural], on Topoisomerase II α human, the “interactions with TOPIIα in ITC measurements” value was “did not show significant interactions”. `O=c1c(O)c(-c2cc(O)c(O)c(O)c2)oc2cc(O)cc(O)c12` [myricetin]: the “mode of action” value in the test on human topoisomerase IIα was “redox-dependent poisons rather than the enzyme inhibitors”. `O=C(C=Cc1ccc(O)c(O)c1)OC1CC(O)(C(=O)O)CC(OC(=O)C=Cc2ccc(O)c(O)c2)C1O` (centres unmarked) [3,5-Di-O-caffeoylquinic acid]: at Topoisomerase II α human, the “∆G (kJ/mol) ITC” value was −33.87 ± 1.39 ^a kJ/mol and the “∆H (kJ/mol) ITC” value is −8.00 ± 0.45 ^c,a kJ/mol. For the compound `O=c1c(O)c(-c2ccc(O)c(O)c2)oc2cc(O)cc(O)c12` [quercetin], in the test with human topoisomerase IIα, the “mode of action” value is recorded as “redox-dependent poisons rather than the enzyme inhibitors”.
